Experimental data taken from PubChem BioAssay (NCI).
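Exposure lasted 48 hours, with cells grown in 96-well plates and compounds tested at five concentrations. GI50: concentration for 50% inhibition of growth. TGI: total growth inhibition.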

Legend:
Experiment in all cases: growth of human tumour cells (NCI), 48 h
786-0 renal = tested on: 786-0 renal
A498 renal = tested on: A498 renal
A549 NSCLC = tested on: A549 NSCLC
ACHN renal = tested on: ACHN renal
BT-549 breast = tested on: BT-549 breast
CAKI-1 renal = tested on: CAKI-1 renal
CCRF-CEM leukemia = tested on: CCRF-CEM leukemia
COLO 205 colon = tested on: COLO 205 colon
DU-145 prostate = tested on: DU-145 prostate
EKVX NSCLC = tested on: EKVX NSCLC
HCC-2998 colon = tested on: HCC-2998 colon
HCT-116 colon = tested on: HCT-116 colon
HCT-15 colon = tested on: HCT-15 colon
HL-60(TB) leukemia = tested on: HL-60(TB) leukemia
HOP-62 NSCLC = tested on: HOP-62 NSCLC
HOP-92 NSCLC = tested on: HOP-92 NSCLC
HS 578T breast = tested on: HS 578T breast
HT29 colon = tested on: HT29 colon
IGROV1 ovarian = tested on: IGROV1 ovarian
K-562 leukemia = tested on: K-562 leukemia
KM12 colon = tested on: KM12 colon
LOX IMVI melanoma = tested on: LOX IMVI melanoma
M14 melanoma = tested on: M14 melanoma
MALME-3M melanoma = tested on: MALME-3M melanoma
MCF7 breast = tested on: MCF7 breast
MDA-MB-231 breast = tested on: MDA-MB-231 breast
MDA-MB-435 = tested on: MDA-MB-435
MDA-MB-468 breast = tested on: MDA-MB-468 breast
MOLT-4 leukemia = tested on: MOLT-4 leukemia
NCI-H226 lung = tested on: NCI-H226 lung
NCI-H23 lung = tested on: NCI-H23 lung
NCI-H460 lung = tested on: NCI-H460 lung
NCI-H522 lung = tested on: NCI-H522 lung
NCI/ADR-RES ovarian = tested on: NCI/ADR-RES ovarian
OVCAR-3 ovarian = tested on: OVCAR-3 ovarian
OVCAR-4 ovarian = tested on: OVCAR-4 ovarian
OVCAR-5 ovarian = tested on: OVCAR-5 ovarian
OVCAR-8 ovarian = tested on: OVCAR-8 ovarian
PC-3 prostate = tested on: PC-3 prostate
RPMI-8226 leukemia = tested on: RPMI-8226 leukemia
RXF 393 renal = tested on: RXF 393 renal
SF-268 CNS = tested on: SF-268 CNS
SF-295 CNS = tested on: SF-295 CNS
SF-539 CNS = tested on: SF-539 CNS
SK-MEL-2 melanoma = tested on: SK-MEL-2 melanoma
SK-MEL-28 melanoma = tested on: SK-MEL-28 melanoma
SK-MEL-5 melanoma = tested on: SK-MEL-5 melanoma
SK-OV-3 ovarian = tested on: SK-OV-3 ovarian
SN12C renal = tested on: SN12C renal
SNB-19 CNS = tested on: SNB-19 CNS
SNB-75 CNS = tested on: SNB-75 CNS
SR leukemia = tested on: SR leukemia
SW-620 colon = tested on: SW-620 colon
T-47D breast = tested on: T-47D breast
TK-10 renal = tested on: TK-10 renal
U251 CNS = tested on: U251 CNS
UACC-257 melanoma = tested on: UACC-257 melanoma
UACC-62 melanoma = tested on: UACC-62 melanoma
UO-31 renal = tested on: UO-31 renal

For `Cc1ccc(-c2nc(Nc3ccccc3C(=O)O)c3ccccc3n2)cc1`, the GI50 (786-0 renal) was 17.1 µM, the TGI (786-0 renal) was over 100 µM and the GI50 (A498 renal) was 19.9 µM. For the same compound, the TGI (A498 renal) was 58.1 µM, the GI50 (A549 NSCLC) was 8.31 µM and the TGI (A549 NSCLC) was over 100 µM. The GI50 (ACHN renal) was 6.44 µM, the TGI (ACHN renal) was 91.1 µM and the GI50 (BT-549 breast) was 14.6 µM. The TGI (BT-549 breast) was 33.8 µM, the GI50 (CAKI-1 renal) was 13.8 µM and the TGI (CAKI-1 renal) was over 100 µM. The GI50 (CCRF-CEM leukemia) was 5.72 µM, the TGI (CCRF-CEM leukemia) was over 100 µM and the GI50 (COLO 205 colon) was 17.8 µM. For the same compound, the TGI (COLO 205 colon) was 41 µM, the GI50 (DU-145 prostate) was 17.7 µM and the TGI (DU-145 prostate) was over 100 µM. It also gave a GI50 (EKVX NSCLC) of 8.89 µM, a TGI (EKVX NSCLC) of 56.2 µM and a GI50 (HCC-2998 colon) of 12.4 µM. It also gave a TGI (HCC-2998 colon) of 36 µM, a GI50 (HCT-116 colon) of 10.1 µM and a TGI (HCT-116 colon) of 36.1 µM. For the same compound, the GI50 (HCT-15 colon) was 5.83 µM, the TGI (HCT-15 colon) was 28.7 µM and the GI50 (HL-60(TB) leukemia) was 12.9 µM. For the same compound, the TGI (HL-60(TB) leukemia) was 75.4 µM, the GI50 (HOP-62 NSCLC) was 10.8 µM and the TGI (HOP-62 NSCLC) was 33.7 µM. The GI50 (HOP-92 NSCLC) was 2.85 µM, the TGI (HOP-92 NSCLC) was 29.3 µM and the GI50 (HS 578T breast) was 10.2 µM. It also gave a TGI (HS 578T breast) of 67 µM, a GI50 (HT29 colon) of 17.9 µM and a TGI (HT29 colon) of over 100 µM. For the same compound, the GI50 (IGROV1 ovarian) was 19.1 µM, the TGI (IGROV1 ovarian) was 87.1 µM and the GI50 (K-562 leukemia) was 7.05 µM. For the same compound, the TGI (K-562 leukemia) was over 100 µM, the GI50 (KM12 colon) was 13.7 µM and the TGI (KM12 colon) was 81.2 µM. It also gave a GI50 (LOX IMVI melanoma) of 10.2 µM, a TGI (LOX IMVI melanoma) of 31.6 µM and a GI50 (M14 melanoma) of 15.5 µM. The TGI (M14 melanoma) was 77.4 µM, the GI50 (MALME-3M melanoma) was 15.6 µM and the TGI (MALME-3M melanoma) was 64.5 µM. For the same compound, the GI50 (MCF7 breast) was 9.41 µM, the TGI (MCF7 breast) was 89.9 µM and the GI50 (MDA-MB-231 breast) was 17.2 µM. The TGI (MDA-MB-231 breast) was 59.7 µM, the GI50 (MDA-MB-435) was 13.9 µM and the TGI (MDA-MB-435) was 87.2 µM. For the same compound, the GI50 (MDA-MB-468 breast) was 8.29 µM, the TGI (MDA-MB-468 breast) was 42.3 µM and the GI50 (MOLT-4 leukemia) was 11.7 µM. For the same compound, the TGI (MOLT-4 leukemia) was over 100 µM, the GI50 (NCI-H226 lung) was 10.2 µM and the TGI (NCI-H226 lung) was 54.2 µM. It also gave a GI50 (NCI-H23 lung) of 15.7 µM, a TGI (NCI-H23 lung) of 44.4 µM and a GI50 (NCI-H460 lung) of 8.52 µM. The TGI (NCI-H460 lung) was 27.7 µM, the GI50 (NCI-H522 lung) was 4.35 µM and the TGI (NCI-H522 lung) was 27.1 µM. It also gave a GI50 (NCI/ADR-RES ovarian) of 16.8 µM, a TGI (NCI/ADR-RES ovarian) of 98.5 µM and a GI50 (OVCAR-3 ovarian) of 13.1 µM. It also gave a TGI (OVCAR-3 ovarian) of 51.3 µM, a GI50 (OVCAR-4 ovarian) of 8.77 µM and a TGI (OVCAR-4 ovarian) of over 100 µM. For the same compound, the GI50 (OVCAR-5 ovarian) was 21.8 µM, the TGI (OVCAR-5 ovarian) was 68.9 µM and the GI50 (OVCAR-8 ovarian) was 18.2 µM. It also gave a TGI (OVCAR-8 ovarian) of over 100 µM, a GI50 (PC-3 prostate) of 12.7 µM and a TGI (PC-3 prostate) of over 100 µM. The GI50 (RPMI-8226 leukemia) was 4.44 µM, the TGI (RPMI-8226 leukemia) was over 100 µM and the GI50 (RXF 393 renal) was 13.1 µM. For the same compound, the TGI (RXF 393 renal) was 65.9 µM, the GI50 (SF-268 CNS) was 14.3 µM and the TGI (SF-268 CNS) was over 100 µM. The GI50 (SF-295 CNS) was 7.04 µM, the TGI (SF-295 CNS) was 27 µM and the GI50 (SF-539 CNS) was 11.9 µM. It also gave a TGI (SF-539 CNS) of 28.3 µM, a GI50 (SK-MEL-2 melanoma) of 3.65 µM and a TGI (SK-MEL-2 melanoma) of 15.6 µM. The GI50 (SK-MEL-28 melanoma) was 15.9 µM, the TGI (SK-MEL-28 melanoma) was 97.4 µM and the GI50 (SK-MEL-5 melanoma) was 5.32 µM. For the same compound, the TGI (SK-MEL-5 melanoma) was 20.3 µM, the GI50 (SK-OV-3 ovarian) was 11.9 µM and the TGI (SK-OV-3 ovarian) was 55.3 µM. The GI50 (SN12C renal) was 11 µM, the TGI (SN12C renal) was 60.4 µM and the GI50 (SNB-19 CNS) was 8.09 µM. The TGI (SNB-19 CNS) was 81.7 µM, the GI50 (SNB-75 CNS) was 1.36 µM and the TGI (SNB-75 CNS) was 80.3 µM. The GI50 (SR leukemia) was 10.3 µM, the TGI (SR leukemia) was over 100 µM and the GI50 (SW-620 colon) was 18.2 µM. For the same compound, the TGI (SW-620 colon) was over 100 µM, the GI50 (T-47D breast) was 6.29 µM and the TGI (T-47D breast) was 70 µM. For the same compound, the GI50 (TK-10 renal) was 29.2 µM, the TGI (TK-10 renal) was over 100 µM and the GI50 (U251 CNS) was 5.58 µM. For the same compound, the TGI (U251 CNS) was 35 µM, the GI50 (UACC-257 melanoma) was 15.3 µM and the TGI (UACC-257 melanoma) was 90.3 µM. The GI50 (UACC-62 melanoma) was 10.2 µM, the TGI (UACC-62 melanoma) was 27 µM and the GI50 (UO-31 renal) was 7.33 µM. It also gave a TGI (UO-31 renal) of 77.9 µM.
